Reference: PubChem BioAssay AID248 (DTP/NCI, 2004)
“And” between values parts separate entries of the source, which are not always exact repeats. Identical values can stand only once. Toxic doses and inconclusive results are not listed. Cut-off read from the data, not from the text of the source: active = T/C of 150% or more; inactive = T/C below 125%.

System: L1210 leukemia ip in BDF1 mice, survival T/C
Assay: NCI In Vivo Anticancer Drug Screen. Data for tumor model L1210 Leukemia (intraperitoneal) in B6D2F1 (BDF1) mice
Conditions: endpoint: mean survival time, higher = longer survival
How it was run: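 Mice bearing the transplanted tumor received compound or vehicle. Survival of the treated group was divided by that of the vehicle-treated control group to give the ratio.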

[1] = dose: 100.0 mg/kg/injection, schedule: Q01DX009 (ip), vehicle: Klucel (hydroxypropylcellulose) (HPC)
[2] = dose: 100.0 mg/kg/injection, schedule: Q04DX003 (ip), vehicle: Klucel (hydroxypropylcellulose) (HPC)
[3] = dose: 200.0 mg/kg/injection, schedule: Q01DX009 (ip), vehicle: Klucel (hydroxypropylcellulose) (HPC)
[4] = dose: 200.0 mg/kg/injection, schedule: Q04DX003 (ip), vehicle: Klucel (hydroxypropylcellulose) (HPC)
[5] = dose: 400.0 mg/kg/injection, schedule: Q04DX003 (ip), vehicle: Klucel (hydroxypropylcellulose) (HPC)
[6] = dose: 100.0 mg/kg/injection, schedule: Q04DX003 (ip), vehicle: saline
[7] = dose: 200.0 mg/kg/injection, schedule: Q04DX003 (ip), vehicle: saline
[8] = dose: 400.0 mg/kg/injection, schedule: Q04DX003 (ip), vehicle: saline
[9] = dose: 50.0 mg/kg/injection, schedule: Q01DX001 (ip), vehicle: saline
[10] = dose: 100.0 mg/kg/injection, schedule: Q01DX001 (ip), vehicle: saline
[11] = dose: 100.0 mg/kg/injection, schedule: Q04DX002 (ip), vehicle: saline
[12] = dose: 200.0 mg/kg/injection, schedule: Q04DX002 (ip), vehicle: saline
[13] = dose: 50.0 mg/kg/injection, schedule: Q01DX009 (ip), vehicle: Klucel (hydroxypropylcellulose) (HPC)
[14] = dose: 200.0 mg/kg/injection, schedule: Q01DX001 (ip), vehicle: saline
[15] = dose: 400.0 mg/kg/injection, schedule: Q01DX001 (ip), vehicle: saline

Measured: T/C

Brc1ccc(C=C2c3ccccc3-c3ccccc32)cc1
inactive: [1] 100 % of control | [2] 96 % of control | [3] 97 % of control | [4] 97 % of control | dose: 400.0 mg/kg/injection, schedule: Q01DX009 (ip), vehicle: Klucel (hydroxypropylcellulose) (HPC) 100 % of control | [5] 94 % of control

CNC(=O)Oc1ccc(SC)c(C)c1
inactive: dose: 0.37 mg/kg/injection, schedule: Q01DX009 (ip), vehicle: Klucel (hydroxypropylcellulose) (HPC) 94 % of control | dose: 0.75 mg/kg/injection, schedule: Q01DX009 (ip), vehicle: Klucel (hydroxypropylcellulose) (HPC) 97 % of control | dose: 1.5 mg/kg/injection, schedule: Q01DX009 (ip), vehicle: Klucel (hydroxypropylcellulose) (HPC) 102 % of control and 103 % of control | dose: 5.0 mg/kg/injection, schedule: Q01DX001 (ip), vehicle: carboxymethylcellulose (CMC) 86 % of control | dose: 10.0 mg/kg/injection, schedule: Q01DX001 (ip), vehicle: carboxymethylcellulose (CMC) 94 % of control

O=c1[nH]c(=O)n(C2CC=CO2)cc1F (stereo not drawn)
inactive: [6] 111 % of control | [7] 113 % of control | [8] 117 % of control

Nc1ccc(-c2ccc(-n3cccc3)cc2)cc1
inactive: dose: 25.0 mg/kg/injection, schedule: Q01DX001 (ip), vehicle: saline 100 % of control | [9] 96 % of control | [10] 109 % of control

COC(=O)c1nc(-c2ccc3c(n2)C(=O)C(N)=C(OC)C3=O)c(N)c(-c2ccc(OC)c(OC)c2O)c1C
inactive: dose: 0.5 mg/kg/injection, schedule: Q01DX015 (ip), vehicle: water 116 % of control | dose: 1.0 mg/kg/injection, schedule: Q01DX001 (ip), vehicle: water 110 % of control | dose: 1.0 mg/kg/injection, schedule: Q01DX015 (ip), vehicle: water 119 % of control | dose: 2.0 mg/kg/injection, schedule: Q01DX001 (ip), vehicle: water 109 % of control | dose: 2.0 mg/kg/injection, schedule: Q01DX015 (ip), vehicle: water 98 % of control | dose: 3.0 mg/kg/injection, schedule: Q01DX001 (ip), vehicle: carboxymethylcellulose (CMC) 104 % of control | dose: 6.0 mg/kg/injection, schedule: Q01DX001 (ip), vehicle: carboxymethylcellulose (CMC) 110 % of control | dose: 12.0 mg/kg/injection, schedule: Q01DX001 (ip), vehicle: carboxymethylcellulose (CMC) 105 % of control | dose: 24.0 mg/kg/injection, schedule: Q01DX001 (ip), vehicle: carboxymethylcellulose (CMC) 104 % of control | dose: 48.0 mg/kg/injection, schedule: Q01DX001 (ip), vehicle: carboxymethylcellulose (CMC) 105 % of control

CC(=O)/C(=C\c1ccccc1)CNC(C)(C)C
inactive: [10] 92 % of control

CC(C)(C)c1ccc(CBr)cc1
inactive: dose: 25.0 mg/kg/injection, schedule: Q04DX002 (ip), vehicle: Klucel (hydroxypropylcellulose) (HPC) 102 % of control | dose: 50.0 mg/kg/injection, schedule: Q04DX002 (ip), vehicle: Klucel (hydroxypropylcellulose) (HPC) 94 % of control | dose: 100.0 mg/kg/injection, schedule: Q04DX002 (ip), vehicle: Klucel (hydroxypropylcellulose) (HPC) 94 % of control

NC(CCS)C(=O)O (stereo not drawn)
inactive: [11] 107 % of control | [12] 110 % of control | dose: 400.0 mg/kg/injection, schedule: Q04DX002 (ip), vehicle: saline 96 % of control

O=C(CCCCC(=O)Nc1ccc(C(=O)Nc2cc(C3=NCCN3)cc(C3=NCCN3)c2)cc1)Nc1ccc(C(=O)Nc2cc(C3=NCCN3)cc(C3=NCCN3)c2)cc1
inactive: dose: 35.0 mg/kg/injection, schedule: Q01DX Z (ip), vehicle: saline 102 % of control | dose: 55.0 mg/kg/injection, schedule: Q01DX Z (ip), vehicle: saline 103 % of control

CN(C)CC1CC2(CC(CN(C)C)C1=O)OCCO2 (stereo not drawn)
inactive: dose: 9.38 mg/kg/injection, schedule: Q01DX001 (ip), vehicle: other 98 % of control | dose: 18.75 mg/kg/injection, schedule: Q01DX001 (ip), vehicle: other 97 % of control | dose: 37.5 mg/kg/injection, schedule: Q01DX001 (ip), vehicle: other 104 % of control

COC(=O)CC(O)C(=O)OC (stereo not drawn)
inactive: dose: 100.0 mg/kg/injection, schedule: Q01DX009 (ip), vehicle: saline 102 % of control | [6] 109 % of control | dose: 200.0 mg/kg/injection, schedule: Q01DX009 (ip), vehicle: saline 93 % of control | [7] 104 % of control | dose: 400.0 mg/kg/injection, schedule: Q01DX009 (ip), vehicle: saline 96 % of control | [8] 110 % of control

C=C(CCCCC)C(=O)/C=C/c1ccc(Cl)cc1
inactive: [13] 103 % of control | [1] 97 % of control | [2] 102 % of control | [3] 95 % of control | [4] 100 % of control | [5] 103 % of control

O=C(O)CCC(NC(=O)OCc1ccccc1)C(=O)OCc1ccccc1 (stereo not drawn)
inactive: [13] 101 % of control | [1] 103 % of control | [2] 101 % of control | [3] 90 % of control | [4] 105 % of control

CC(=O)NC1CCC(Br)CC1 (stereo not drawn)
inactive: [13] 94 % of control | [1] 105 % of control | [3] 102 % of control

C1CCC(C2CCCC[N-]2)[N-]C1.[Cl][Cu][Cl] (stereo not drawn)
inactive: dose: 1.56 mg/kg/injection, schedule: Q01DX009 (ip), vehicle: Klucel (hydroxypropylcellulose) (HPC) 95 % of control | dose: 3.13 mg/kg/injection, schedule: Q01DX009 (ip), vehicle: Klucel (hydroxypropylcellulose) (HPC) 102 % of control | dose: 6.25 mg/kg/injection, schedule: Q01DX009 (ip), vehicle: Klucel (hydroxypropylcellulose) (HPC) 86 % of control | [2] 109 % of control | [4] 95 % of control | [5] 101 % of control

O=C(O)C12CCC(CCC1O)C2 (stereo not drawn)
inactive: dose: 75.0 mg/kg/injection, schedule: Q01DX001 (ip), vehicle: other 102 % of control | dose: 150.0 mg/kg/injection, schedule: Q01DX001 (ip), vehicle: other 100 % of control | dose: 300.0 mg/kg/injection, schedule: Q01DX001 (ip), vehicle: other 100 % of control

Cc1ccc2[nH]c3c(c2c1)CCCC3
inactive: [9] 101 % of control | [10] 101 % of control | [14] 107 % of control | [15] 101 % of control

COC1C(N)C(O)OC(CO)C1O (stereo not drawn)
inactive: [10] 99 % of control | [14] 103 % of control | [15] 94 % of control

CCOC(=O)c1cc(Cl)c2ccccc2n1
inactive: [10] 96 % of control | [14] 98 % of control | [15] 96 % of control

O=C(CCCC(=O)N/N=C/c1ccc2c(c1)CCC2)N/N=C/c1ccc2c(c1)CCC2
inactive: dose: 100.0 mg/kg/injection, schedule: Q04DX003 (ip), vehicle: saline with Tween-80 95 % of control | dose: 200.0 mg/kg/injection, schedule: Q04DX003 (ip), vehicle: saline with Tween-80 97 % of control | dose: 400.0 mg/kg/injection, schedule: Q04DX003 (ip), vehicle: saline with Tween-80 90 % of control

C=CCOC(=O)C(F)(F)F
inactive: [11] 89 % of control | [12] 86 % of control
